Laboratory results taken from patent publication US20230219963A1, “PYRROLO[2,3-D]PYRIMIDINE DERIVATIVES” (Pfizer Inc., priority 2020, published 2023).

What was measured:
EPO induced pSTAT5 = assay: EPO-induced pSTAT5 in human whole blood (all events); assay type: cell-based; conditions: JAK2/JAK2, read-out: EPO induced pSTAT5, cellular potency IC50
Method: (§1) Human whole blood was collected from healthy donors via vein puncture into Vacutainer collection tubes containing sodium heparin in accordance with Pfizer protocols (Protocol No. GOHW RDP-01) approved by the Shulman Institutional Review Board. Blood was warmed to 37° C. priorto use. Human whole blood was aliquoted (90 μL/well) in 96-well, deep-well, V-bottom plates and treated with compounds (5 μL/well) at different concentrations up to 60 μM (0.2% DMSO final) at 37° C. for 60 minutes. This was followed by a challenge with IFNα (5000 U/mL), IFNγ (100 ng/mL), IL-6 (50 ng/mL), IL-10 (30 ng/mL), IL-12 (30 ng/mL), IL-15 (30 ng/mL), IL-21 (50 ng/mL), IL-23 (25 ng/mL), IL-27 (1000 ng/mL), EPO (2 U/mL), TSLP (50 ng/mL) or PBS and incubated for 15 minutes. Anti-cell surface antibodies were added 15 minutes prior to cytokine stimulation; anti-CD3-BV421 (0.5 μL/well) to IL-6-treated and TSLP-treated samples and anti-CD14-BV421 (0.5 μL/well) to IFNγ-treated samples. Samples were treated with warm 1×Lyse/Fix buffer (700 μL/well) to terminate activation and further incubated at 37° C. for 20 minutes to lyse red blood cells. Plates were centrifuged at 300×g for 5 minutes, supernatant was aspirated, and cells were washed with 800 μL/well of staining buffer (D-PBS containing 0.1% FBS and 0.01% sodium azide). Washed cell pellets were resuspended in 350 μL/well of prechilled 90% methanol and incubated at 4° C. for 30 minutes. After the removal of 90% methanol, cells were washed once with staining buffer. All samples were finally suspended in 150 μL/well of the desired anti-phospho-STAT antibodies at 1:150 dilution in staining buffer; anti-pSTAT1-AF647 in IFNγ treated samples; anti-pSTAT1-AF488 and anti-pSTAT3-AF647 in IL-6-treated samples, anti-pSTAT3-AF647 in IFNα, IL-10, IL-21, IL-23 and IL-27 treated samples, anti-pSTAT4-AF647 in IL-12 treated samples, anti-pSTAT5-AF-647 in EPO, IL-15 and TSLP-treated samples. Human primary keratinocytes were cultured in DermaLife™ medium with supplement kit to expand cell population. Cell passages 2 to 5 were used in the assays. Cells were harvested at ˜80% confluence, suspended in warm DermaLife™ medium, aliquoted (90 μL/well) in 96-well, deep-well, V-bottom plates, and incubated at 37° C. for 30 minutes. Cells were then treated with compounds (0.0003 to 20 μM) for 60 minutes and followed by stimulation with IL-4 (2 ng/mL) or IL-13 (20 ng/mL) at 37° C. for 15 minutes. […]
(§2) After overnight incubation at 4° C., anti-pSTAT stained samples were transferred into 96-well polypropylene U-bottom plates and flow cytometric analysis was performed on a LSR Fortessa™ equipped with a HTS plate loader. […] Background fluorescence was defined using unstimulated cells and a gate was placed at the foot of the peak to include ˜0.5% gated population. […]

IL-10 induced pSTAT3 = assay: IL-10-induced pSTAT3 in human whole blood (lymphocytes); assay type: cell-based; conditions: Lymphocyte, JAK1/TYK2, read-out: IL-10 induced pSTAT3, cellular potency IC50
Method: as §1, §2

TYK2 = TYK2 (Homo sapiens, UniProt P29597); assay: JAK Caliper Enzyme Assay at 1 mM ATP (TYK2); assay type: biochemical
Method: JAK Caliper Enzyme Assay at 1 mM ATP
Test article was solubilized in dimethyl sulfoxide (DMSO) to a stock concentration of 30 mM. An 11-point half log dilution series was created in DMSO with a top concentration of 600 μM. […] The compound plates were diluted 1 to 60 resulting in a top final assay compound concentration of 10 μM and a 2% DMSO concentration. Test article and assay controls were added to a 384-well plate. Reaction mixtures contained 20 mM HEPES, pH 7.4, 10 mM magnesium chloride, 0.01% bovine serum albumin (BSA), 0.0005% Tween 20, 1 mM ATP and 1 μM peptide substrate. […] The assays were initiated by the addition of 20 nM JAK1, 1 nM JAK2, 1 nM JAK3 or 1 nM TYK2 enzyme and were incubated at room temperature for three hours for JAK1, 60 minutes for JAK2, 75 minutes for JAK3 or 135 minutes for TYK2. Enzyme concentrations and incubation times were optimized for each new enzyme preps and were modified slightly over time to ensure 20%-30% phosphorylation. The assays were stopped with a final concentration of 10 mM EDTA, 0.1% Coating Reagent and 100 mM HEPES, pH=7.4. The assay plates were placed on a Caliper Life Science Lab Chip 3000 (LC3000) instrument, and each well was sampled using appropriate separation conditions to measure the unphosphorylated and phosphorylated peptide.

IL-13 induced pSTAT6 = assay: IL-13-induced pSTAT6 in human keratinocytes; assay type: cell-based; conditions: Keratinocyte, JAK1/JAK2, read-out: IL-13 induced pSTAT6, cellular potency IC50
Method: (§3) Human whole blood was collected from healthy donors via vein puncture into Vacutainer collection tubes containing sodium heparin in accordance with Pfizer protocols (Protocol No. GOHW RDP-01) approved by the Shulman Institutional Review Board. Blood was warmed to 37° C. priorto use. Human whole blood was aliquoted (90 μL/well) in 96-well, deep-well, V-bottom plates and treated with compounds (5 μL/well) at different concentrations up to 60 μM (0.2% DMSO final) at 37° C. for 60 minutes. This was followed by a challenge with IFNα (5000 U/mL), IFNγ (100 ng/mL), IL-6 (50 ng/mL), IL-10 (30 ng/mL), IL-12 (30 ng/mL), IL-15 (30 ng/mL), IL-21 (50 ng/mL), IL-23 (25 ng/mL), IL-27 (1000 ng/mL), EPO (2 U/mL), TSLP (50 ng/mL) or PBS and incubated for 15 minutes. Anti-cell surface antibodies were added 15 minutes prior to cytokine stimulation; anti-CD3-BV421 (0.5 μL/well) to IL-6-treated and TSLP-treated samples and anti-CD14-BV421 (0.5 μL/well) to IFNγ-treated samples. Samples were treated with warm 1×Lyse/Fix buffer (700 μL/well) to terminate activation and further incubated at 37° C. for 20 minutes to lyse red blood cells. Plates were centrifuged at 300×g for 5 minutes, supernatant was aspirated, and cells were washed with 800 μL/well of staining buffer (D-PBS containing 0.1% FBS and 0.01% sodium azide). Washed cell pellets were resuspended in 350 μL/well of prechilled 90% methanol and incubated at 4° C. for 30 minutes. After the removal of 90% methanol, cells were washed once with staining buffer. […]
as §2

IL-22 induced pSTAT3 = assay: IL-22-induced pSTAT3 in human keratinocytes; assay type: cell-based; conditions: Keratinocyte, JAK1/TYK2, read-out: IL-22 induced pSTAT3, cellular potency IC50
IL-6 induced pSTATI = assay: IL-6-induced pSTAT1 in human whole blood (CD3+ cells); assay type: cell-based; conditions: JAK1/JAK2, read-out: IL-6 induced pSTATI, cellular potency IC50
Method: as §1, §2

IL-4 induced pSTAT6 = assay: IL-4-induced pSTAT6 in human keratinocytes; assay type: cell-based; conditions: Keratinocyte, JAK1/JAK2, read-out: IL-4 induced pSTAT6, cellular potency IC50
Method: as §3, §2

Chain of TYK2 (P29597 whole entry): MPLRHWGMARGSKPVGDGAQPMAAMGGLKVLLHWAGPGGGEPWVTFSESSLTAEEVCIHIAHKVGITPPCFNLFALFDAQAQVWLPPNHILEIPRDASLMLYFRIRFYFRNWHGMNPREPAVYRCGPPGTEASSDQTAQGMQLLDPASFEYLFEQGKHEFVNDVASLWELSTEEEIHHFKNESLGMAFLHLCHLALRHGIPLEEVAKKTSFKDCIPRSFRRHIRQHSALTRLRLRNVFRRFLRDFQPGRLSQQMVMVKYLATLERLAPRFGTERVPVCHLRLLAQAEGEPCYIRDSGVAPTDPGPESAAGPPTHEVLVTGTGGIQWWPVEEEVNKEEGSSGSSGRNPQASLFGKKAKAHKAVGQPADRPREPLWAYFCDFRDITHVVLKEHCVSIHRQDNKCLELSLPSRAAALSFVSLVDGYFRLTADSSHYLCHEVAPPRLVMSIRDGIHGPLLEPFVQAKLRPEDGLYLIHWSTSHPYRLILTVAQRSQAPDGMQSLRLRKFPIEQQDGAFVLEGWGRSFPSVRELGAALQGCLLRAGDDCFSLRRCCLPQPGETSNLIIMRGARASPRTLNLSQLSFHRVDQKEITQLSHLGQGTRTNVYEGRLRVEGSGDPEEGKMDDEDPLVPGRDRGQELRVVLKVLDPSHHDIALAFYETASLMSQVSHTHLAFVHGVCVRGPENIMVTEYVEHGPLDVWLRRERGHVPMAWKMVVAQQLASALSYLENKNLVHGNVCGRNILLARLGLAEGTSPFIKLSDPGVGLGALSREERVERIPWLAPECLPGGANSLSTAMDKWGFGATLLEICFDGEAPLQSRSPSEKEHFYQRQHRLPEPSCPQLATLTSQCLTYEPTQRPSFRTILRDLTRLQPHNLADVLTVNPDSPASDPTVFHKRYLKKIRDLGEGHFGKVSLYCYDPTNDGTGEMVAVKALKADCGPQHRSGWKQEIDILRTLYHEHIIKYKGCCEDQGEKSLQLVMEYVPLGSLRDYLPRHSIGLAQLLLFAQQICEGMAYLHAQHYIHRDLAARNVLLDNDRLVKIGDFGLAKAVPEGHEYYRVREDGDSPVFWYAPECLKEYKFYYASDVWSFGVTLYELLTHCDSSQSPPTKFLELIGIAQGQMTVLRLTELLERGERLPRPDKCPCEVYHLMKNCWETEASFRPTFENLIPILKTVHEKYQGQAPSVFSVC

| SMILES | IC50 (EPO induced pSTAT5) | IC50 (IL-10 induced pSTAT3) | IC50 (TYK2) | IC50 (IL-13 induced pSTAT6) | IC50 (IL-22 induced pSTAT3) | IC50 (IL-6 induced pSTATI) | IC50 (IL-4 induced pSTAT6) |
| --- | --- | --- | --- | --- | --- | --- | --- |
| C[C@H](O)CS(=O)(=O)N[C@H]1C[C@@H](N(C)c2ncnc3[nH]ccc23)C1 (single isomer, unassigned) [IA (M2)] | 9470 nM | 233 nM | 1210 nM | 84.1 nM | 198 nM | 136 nM | 134 nM |
| C[C@@H](O)CS(=O)(=O)N[C@H]1C[C@@H](N(C)c2ncnc3[nH]ccc23)C1 (single isomer, unassigned) [IC (M3)] | 18100 nM | 488 nM | 3420 nM | – | – | 333 nM | – |
| CN(c1ncnc2[nH]ccc12)[C@H]1C[C@@H](NS(=O)(=O)CCCO)C1 [IB (M1), 3-Hydroxy-N-(cis-3-(methyl(7H-pyrrolo[2,3-d]pyrimidin-4-yl)amino)cyclobutyl)propane-1-sulfonamide] | 9750 nM | 675 nM | 3190 nM | 236 nM | 703 nM | 171 nM | 433 nM |
